Values quoted from earlier work, collected in patent US20140106008A1, “GLYCEROL COMPOSITIONS AND SOLUTIONS” (BIO-ENERGY INGREDIENTS LIMITED, priority 2011, published 2014).

Tested on: exposed organisms
Settings: aquatic toxicity

Compound: OCC(O)CO [Glycerol, propane-1,2,3-triol]
- TLm96 value, concentration that will kill 50% of the exposed organisms in 96 hours: over 1000 mg/litre
